Assay results published in the supplement of paper PMC7214452.

Experiments:
Experiment in all cases: normalized area under the dose-response curve (viability relative to DMSO control) (fraction); higher = less sensitive (more viable cells)
Conditions in all cases: exposure time not given
AMO1 (cancer type: MM) = system: AMO1 (cancer type: MM)
Experimental: (§1)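 25 myeloma and 15 non-Hodgkin lymphoma cell lines were exposed to each of 76 drugs as 7-point log dilutions (0.01 nM–10 µM) in duplicate. Viability was read with CellTiter-Glo and normalised to DMSO (0.1%) and staurosporine (10 µM) plate controls. Normalised AUC was calculated by the trapezoidal method relative to the negative control.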

EJM (cancer type: MM) = system: EJM (cancer type: MM)
Experimental: as §1

FR4 (cancer type: MM) = system: FR4 (cancer type: MM)
Experimental: as §1

[1] = system: Granta-519 (cancer type: Mantle)
Experimental: as §1

[2] = system: HuT 78 (cancer type: TCL)
Experimental: as §1

JJN3 (cancer type: MM) = system: JJN3 (cancer type: MM)
Experimental: as §1

[3] = system: JVM2 (cancer type: Mantle)
Experimental: as §1

[4] = system: JeKo-1 (cancer type: Mantle)
Experimental: as §1

KMS11 (cancer type: MM) = system: KMS11 (cancer type: MM)
Experimental: as §1

[5] = system: KMS12PE (cancer type: MM)
Experimental: as §1

KMS18 (cancer type: MM) = system: KMS18 (cancer type: MM)
Experimental: as §1

KMS26 (cancer type: MM) = system: KMS26 (cancer type: MM)
Experimental: as §1

[6] = system: KMS28BM (cancer type: MM)
Experimental: as §1

[7] = system: KMS28PE (cancer type: MM)
Experimental: as §1

KMS34 (cancer type: MM) = system: KMS34 (cancer type: MM)
Experimental: as §1

[8] = system: Karpas-299 (cancer type: TCL)
Experimental: as §1

L363 (cancer type: MM) = system: L363 (cancer type: MM)
Experimental: as §1

LP1 (cancer type: MM) = system: LP1 (cancer type: MM)
Experimental: as §1

MM1.R (cancer type: MM) = system: MM1.R (cancer type: MM)
Experimental: as §1

MM1.S (cancer type: MM) = system: MM1.S (cancer type: MM)
Experimental: as §1

[9] = system: Mino (cancer type: Mantle)
Experimental: as §1

My-La (cancer type: TCL) = system: My-La (cancer type: TCL)
Experimental: as §1

[10] = system: NCI-H929 (cancer type: MM)
Experimental: as §1

[11] = system: OCI-LY1 (cancer type: DLBCL)
Experimental: as §1

[12] = system: OCI-LY19 (cancer type: DLBCL)
Experimental: as §1

[13] = system: OCI-LY3 (cancer type: DLBCL)
Experimental: as §1

[14] = system: OCI-MY5 (cancer type: MM)
Experimental: as §1

[15] = system: OCI-MY5/CRBN (cancer type: MM)
Experimental: as §1

[16] = system: OCI-MY5/Vec (cancer type: MM)
Experimental: as §1

[17] = system: OCI-MY7 (cancer type: MM)
Experimental: as §1

OPM2 (cancer type: MM) = system: OPM2 (cancer type: MM)
Experimental: as §1

[18] = system: RPMI 8226 (cancer type: MM)
Experimental: as §1

SKMM2 (cancer type: MM) = system: SKMM2 (cancer type: MM)
Experimental: as §1

[19] = system: SR-786 (cancer type: TCL)
Experimental: as §1

[20] = system: SU-DHL1 (cancer type: TCL)
Experimental: as §1

[21] = system: SU-DHL2 (cancer type: DLBCL)
Experimental: as §1

[22] = system: SU-DHL6 (cancer type: DLBCL)
Experimental: as §1

Se-Ax (cancer type: TCL) = system: Se-Ax (cancer type: TCL)
Experimental: as §1

U266 (cancer type: MM) = system: U266 (cancer type: MM)
Experimental: as §1

XG2 (cancer type: MM) = system: XG2 (cancer type: MM)
Experimental: as §1

Compound | normalized area under the dose-response curve (AMO1 (cancer type: MM)) | normalized area under the dose-response curve (EJM (cancer type: MM)) | normalized area under the dose-response curve (FR4 (cancer type: MM)) | normalized area under the dose-response curve [1] | normalized area under the dose-response curve [2] | normalized area under the dose-response curve (JJN3 (cancer type: MM)) | normalized area under the dose-response curve [3] | normalized area under the dose-response curve [4] | normalized area under the dose-response curve (KMS11 (cancer type: MM)) | normalized area under the dose-response curve [5] | normalized area under the dose-response curve (KMS18 (cancer type: MM)) | normalized area under the dose-response curve (KMS26 (cancer type: MM)) | normalized area under the dose-response curve [6] | normalized area under the dose-response curve [7] | normalized area under the dose-response curve (KMS34 (cancer type: MM)) | normalized area under the dose-response curve [8] | normalized area under the dose-response curve (L363 (cancer type: MM)) | normalized area under the dose-response curve (LP1 (cancer type: MM)) | normalized area under the dose-response curve (MM1.R (cancer type: MM)) | normalized area under the dose-response curve (MM1.S (cancer type: MM)) | normalized area under the dose-response curve [9] | normalized area under the dose-response curve (My-La (cancer type: TCL)) | normalized area under the dose-response curve [10] | normalized area under the dose-response curve [11] | normalized area under the dose-response curve [12] | normalized area under the dose-response curve [13] | normalized area under the dose-response curve [14] | normalized area under the dose-response curve [15] | normalized area under the dose-response curve [16] | normalized area under the dose-response curve [17] | normalized area under the dose-response curve (OPM2 (cancer type: MM)) | normalized area under the dose-response curve [18] | normalized area under the dose-response curve (SKMM2 (cancer type: MM)) | normalized area under the dose-response curve [19] | normalized area under the dose-response curve [20] | normalized area under the dose-response curve [21] | normalized area under the dose-response curve [22] | normalized area under the dose-response curve (Se-Ax (cancer type: TCL)) | normalized area under the dose-response curve (U266 (cancer type: MM)) | normalized area under the dose-response curve (XG2 (cancer type: MM))
Nc1cccc2c1C(=O)N(C1CCC(=O)NC1=O)C2=O (stereo not given) [Pomalidomide] | 0.879 | 0.879 | 0.949 | 0.87 | 0.986 | 0.994 | 0.889 | 0.843 | 0.912 | 0.9 | 0.886 | 0.86 | 0.925 | 0.962 | 0.917 | 0.914 | 0.887 | 0.871 | 0.76 | 0.74 | 0.884 | 0.875 | 0.78 | 0.964 | 0.854 | 0.979 | 0.9 | 0.908 | 0.897 | 0.9 | 0.963 | 0.959 | 0.973 | 0.947 | 0.846 | 0.917 | 0.989 | 0.767 | 0.96 | 0.77
Cc1ccc(C(=O)Nc2ccc(CN3CCN(C)CC3)c(C(F)(F)F)c2)cc1C#Cc1cnc2cccnn12 [Ponatinib] | 0.431 | 0.427 | 0.451 | 0.755 | 0.527 | 0.344 | 0.44 | 0.52 | 0.458 | 0.48 | 0.479 | 0.593 | 0.551 | 0.501 | 0.298 | 0.719 | 0.461 | 0.408 | 0.5 | 0.57 | 0.501 | 0.615 | 0.52 | 0.678 | 0.726 | 0.859 | 0.361 | 0.665 | 0.613 | 0.48 | 0.419 | 0.237 | 0.55 | 0.673 | 0.239 | 0.797 | 0.79 | 0.417 | 0.381 | 0.454
CC(C)(C)c1cc(NC(=O)Nc2ccc(-c3cn4c(n3)sc3cc(OCCN5CCOCC5)ccc34)cc2)no1 [Quizartinib] | 0.837 | 0.861 | 0.923 | 0.941 | 0.865 | 0.631 | 0.764 | 0.98 | 0.828 | 0.87 | 0.737 | 0.934 | 0.838 | 0.898 | 0.439 | 0.93 | 0.751 | 0.766 | 0.69 | 0.82 | 0.863 | 0.917 | 0.88 | 0.987 | 0.923 | 0.959 | 0.65 | 0.917 | 0.894 | 0.91 | 0.531 | 0.955 | 0.973 | 0.869 | 0.686 | 0.956 | 0.907 | 0.825 | 0.867 | 0.763
O=C(c1ccc(OCCN2CCCCC2)cc1)c1c(-c2ccc(O)cc2)sc2cc(O)ccc12 [Raloxifene] | 0.704 | 0.859 | 0.896 | 0.939 | 0.786 | 0.821 | 0.884 | 0.939 | 0.866 | 0.91 | 0.848 | 0.869 | 0.889 | 0.849 | 0.657 | 0.945 | 0.829 | 0.731 | 0.89 | 0.85 | 1.01 | 0.974 | 0.91 | 0.932 | 0.914 | 0.945 | 0.744 | 0.857 | 0.787 | 0.92 | 0.865 | 0.86 | 0.953 | 0.78 | 0.677 | 0.919 | 0.856 | 0.854 | 0.814 | 0.746
CNC(=O)c1cc(Oc2ccc(NC(=O)Nc3ccc(Cl)c(C(F)(F)F)c3)c(F)c2)ccn1 [Regorafenib] | 0.549 | 0.589 | 0.642 | 0.901 | 0.697 | 0.436 | 0.715 | 0.879 | 0.546 | 0.62 | 0.553 | 0.844 | 0.565 | 0.695 | 0.35 | 0.892 | 0.54 | 0.558 | 0.53 | 0.52 | 0.899 | 0.84 | 0.56 | 1 | 0.96 | 0.964 | 0.468 | 0.927 | 0.848 | 0.58 | 0.594 | 0.543 | 0.636 | 0.91 | 0.57 | 0.955 | 0.916 | 0.684 | 0.48 | 0.481
C/C=C1\NC(=O)[C@H]2CSSCC/C=C/[C@H](CC(=O)N[C@H](C(C)C)C(=O)N2)OC(=O)[C@H](C(C)C)NC1=O [Romidepsin] | 0.224 | 0.105 | 0.152 | 0.209 | 0.0814 | 0.324 | 0.148 | 0.174 | 0.382 | 0.24 | 0.291 | 0.257 | 0.271 | 0.262 | 0.206 | 0.118 | 0.401 | 0.447 | 0.33 | 0.23 | 0.178 | 0.109 | 0.09 | 0.118 | 0.198 | 0.203 | 0.13 | 0.0857 | 0.143 | 0.5 | 0.445 | 0.433 | 0.511 | 0.148 | 0.113 | 0.188 | 0.385 | 0.107 | 0.21 | 0.15
N#CC[C@H](C1CCCC1)n1cc(-c2ncnc3[nH]ccc23)cn1 [Ruxolitinib] | 0.911 | 0.886 | 0.927 | 0.925 | 0.853 | 0.894 | 0.774 | 1.01 | 0.87 | 0.91 | 0.978 | 0.802 | 0.913 | 0.879 | 0.708 | 0.742 | 0.863 | 0.861 | 0.85 | 0.91 | 0.983 | 0.775 | 0.91 | 0.997 | 0.972 | 0.944 | 0.853 | 0.993 | 0.898 | 0.89 | 0.931 | 0.997 | 0.958 | 0.83 | 0.713 | 0.959 | 0.928 | 0.828 | 0.833 | 0.804
O=C(/C=C\n1cnc(-c2cc(C(F)(F)F)cc(C(F)(F)F)c2)n1)NNc1cnccn1 [Selinexor] | 0.182 | 0.389 | 0.703 | 0.705 | 0.227 | 0.468 | 0.407 | 0.43 | 0.126 | 0.47 | 0.446 | 0.42 | 0.62 | 0.41 | 0.313 | 0.553 | 0.153 | 0.446 | 0.23 | 0.18 | 0.507 | 0.469 | 0.25 | 0.634 | 0.38 | 0.643 | 0.151 | 0.105 | 0.0963 | 0.13 | 0.411 | 0.424 | 0.598 | 0.306 | 0.277 | 0.697 | 0.789 | 0.483 | 0.415 | 0.256
